Patent US9695155B2, “Herbicidal substituted pyrimidinyloxy benzene compounds” (E. I. DU PONT DE NEMOURS AND COMPANY, priority 2013, dated 2017)

Columns and labels:
corn = assay: Test C postemergence; type: in vivo, Zea mays; conditions: Zea mays, post-emergence
Outline: (§1)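 Sown in loam/sand → sprayed pre-emergence; or grown to 1–4 leaves in peat mix → sprayed post-emergence. Same solvent/surfactant formulation both ways. Greenhouse 13–15 d. Score 0–100 visual.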

Italian ryegrass = assay: Test C preemergence; type: in vivo, Lolium multiflorum; conditions: Lolium multiflorum, pre-emergence
Outline: as §1

yellow nutsedge [1] = assay: Test C preemergence; type: in vivo, Cyperus esculentus; conditions: Cyperus, pre-emergence
Outline: as §1

giant foxtail = assay: Test C postemergence; type: in vivo, Setaria faberii; conditions: Setaria faberi, post-emergence
Outline: as §1

morningglory = assay: Test C preemergence; type: in vivo, Ipomoea coccinea; conditions: Ipomoea, pre-emergence
Outline: as §1

wild oat = assay: Test C postemergence; type: in vivo, Avena fatua; conditions: Avena fatua, post-emergence
Outline: as §1

chickweed = assay: Test C postemergence; type: in vivo, Stellaria media; conditions: Stellaria media, post-emergence
Outline: as §1

soybean = assay: Test C preemergence; type: in vivo, Glycine max; conditions: Glycine max, pre-emergence
Outline: as §1

wheat, winter = assay: Test C postemergence; type: in vivo, Triticum aestivum; conditions: Triticum aestivum, post-emergence
Outline: as §1

blackgrass [2] = assay: Test C preemergence; type: in vivo, Alopecurus myosuroides; conditions: Alopecurus myosuroides, pre-emergence
Outline: as §1

blackgrass [3] = assay: Test C postemergence; type: in vivo, Alopecurus myosuroides; conditions: Alopecurus myosuroides, post-emergence
Outline: as §1

barnyardgrass = assay: Test C postemergence; type: in vivo, Echinochloa crus-galli; conditions: Echinochloa crus-galli, post-emergence
Outline: as §1

pigweed [4] = assay: Test A preemergence; type: in vivo, Amaranthus retroflexus; conditions: Amaranthus retroflexus, pre-emergence, 0 to 100 scale where 0 is no effect and 100 is complete control
Outline: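 Injury scores run from 0, no effect, to 100, complete control, judged by eye against untreated plants roughly 10 days after treatment. Chemicals carried a surfactant in a non-phytotoxic solvent and went onto loam–sand soil preemergence or onto one- to two-leaf seedlings postemergence.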

pigweed [5] = assay: Test C preemergence; type: in vivo, Amaranthus retroflexus; conditions: Amaranthus retroflexus, pre-emergence
Outline: as §1

ragweed = assay: Test C preemergence; type: in vivo, Ambrosia elatior; conditions: Ambrosia artemisiifolia, pre-emergence
Outline: as §1

yellow nutsedge [6] = assay: Test C postemergence; type: in vivo, Cyperus esculentus; conditions: Cyperus, post-emergence
Outline: as §1

FC(F)(F)Sc1cnn(-c2ccccc2Oc2ncc(Cl)cn2)c1 [Compound 132, 5-chloro-2-[2-[4-(trifluoromethylthio)-1H-pyrazol-1-yl]phenoxy]pyrimidine]
plant injury at 16 g/ha (corn; 16 g ai/ha, postemergence, 0 is no effect, 100 is complete control, read-out: Plant response rating (0 to 100), Corn): 5%
Corn plant response rating (crop injury, 0 = no effect, 100 = complete kill) at 125 g/ha (corn; 125 g ai/ha, postemergence, visual rating, scale 0 to 100 (0 no effect, 100 complete control)): 10%
Corn plant response rating (crop injury, 0 = no effect, 100 = complete kill) at 62 g/ha (corn; Postemergence, 62 g ai/ha, scale 0 to 100 (0 no effect, 100 complete control)): 5%
pest or weed control at 16 g/ha (Italian ryegrass; 16 g ai/ha, preemergence, scale 0 to 100 (0 no effect, 100 complete control), read-out: Ryegrass, Italian plant response rating): 0%
pest or weed control at 62 g/ha (Italian ryegrass; 62 g ai/ha, preemergence, scale 0 (no effect) to 100 (complete control), read-out: Ryegrass, Italian plant response rating): 5%
pest or weed control at 125 g/ha (Italian ryegrass; 125 g ai/ha, preemergence, scale 0 (no effect) to 100 (complete control), read-out: Ryegrass, Italian plant response rating): 30%
pest or weed control at 31 g/ha (Italian ryegrass; Preemergence, 31 g ai/ha, scale 0 to 100, 0 no effect, 100 complete control, read-out: Plant response rating, Ryegrass, Italian): 0%
pest or weed control at 16 g/ha (yellow nutsedge [1]; 16 g ai/ha, preemergence, scale 0 to 100 (0 no effect, 100 complete control), read-out: Nutsedge, Yellow plant response rating): 100%
pest or weed control at 62 g/ha (yellow nutsedge [1]; 62 g ai/ha, preemergence, scale 0 (no effect) to 100 (complete control), read-out: Nutsedge, Yellow plant response rating): 15%
pest or weed control at 125 g/ha (yellow nutsedge [1]; 125 g ai/ha, preemergence, scale 0 (no effect) to 100 (complete control), read-out: Nutsedge, Yellow plant response rating): 15%
pest or weed control at 31 g/ha (yellow nutsedge [1]; Preemergence, 31 g ai/ha, scale 0 to 100, 0 no effect, 100 complete control, read-out: Plant response rating, Nutsedge, Yellow): 0%
pest or weed control at 16 g/ha (giant foxtail; 16 g ai/ha, postemergence, 0 is no effect, 100 is complete control, read-out: Plant response rating (0 to 100), Foxtail, Giant): 0%
pest or weed control at 125 g/ha (giant foxtail; 125 g ai/ha, postemergence, visual rating, scale 0 to 100 (0 no effect, 100 complete control), read-out: Plant response rating, Foxtail, Giant): 10%
pest or weed control at 62 g/ha (giant foxtail; Postemergence, 62 g ai/ha, scale 0 to 100 (0 no effect, 100 complete control), read-out: Plant response rating, Foxtail, Giant): 5%
pest or weed control at 16 g/ha (morningglory; 16 g ai/ha, preemergence, scale 0 to 100 (0 no effect, 100 complete control), read-out: Morningglory plant response rating): 25%
pest or weed control at 62 g/ha (morningglory; 62 g ai/ha, preemergence, scale 0 (no effect) to 100 (complete control), read-out: Morningglory plant response rating): 5%
pest or weed control at 125 g/ha (morningglory; 125 g ai/ha, preemergence, scale 0 (no effect) to 100 (complete control), read-out: Morningglory plant response rating): 5%
pest or weed control at 31 g/ha (morningglory; Preemergence, 31 g ai/ha, scale 0 to 100, 0 no effect, 100 complete control, read-out: Plant response rating, Morningglory): 0%
pest or weed control at 16 g/ha (wild oat; 16 g ai/ha, postemergence, 0 is no effect, 100 is complete control, read-out: Plant response rating (0 to 100), Oat, Wild): 0%
pest or weed control at 125 g/ha (wild oat; 125 g ai/ha, postemergence, visual rating, scale 0 to 100 (0 no effect, 100 complete control), read-out: Plant response rating, Oat, Wild): 5%
pest or weed control at 62 g/ha (wild oat; Postemergence, 62 g ai/ha, scale 0 to 100 (0 no effect, 100 complete control), read-out: Plant response rating, Oat, Wild): 5%
pest or weed control at 16 g/ha (chickweed; 16 g ai/ha, postemergence, 0 is no effect, 100 is complete control, read-out: Plant response rating (0 to 100), Chickweed): 10%
pest or weed control at 125 g/ha (chickweed; 125 g ai/ha, postemergence, visual rating, scale 0 to 100 (0 no effect, 100 complete control), read-out: Plant response rating, Chickweed): 40%
pest or weed control at 62 g/ha (chickweed; Postemergence, 62 g ai/ha, scale 0 to 100 (0 no effect, 100 complete control), read-out: Plant response rating, Chickweed): 30%
plant injury at 16 g/ha (soybean; 16 g ai/ha, preemergence, scale 0 to 100 (0 no effect, 100 complete control), read-out: Soybean plant response rating): 0%
plant injury at 62 g/ha (soybean; 62 g ai/ha, preemergence, scale 0 (no effect) to 100 (complete control), read-out: Soybean plant response rating): 5%
plant injury at 125 g/ha (soybean; 125 g ai/ha, preemergence, scale 0 (no effect) to 100 (complete control), read-out: Soybean plant response rating): 55%
plant injury at 31 g/ha (soybean; Preemergence, 31 g ai/ha, scale 0 to 100, 0 no effect, 100 complete control, read-out: Plant response rating, Soybean): 0%
plant injury at 16 g/ha (wheat, winter; 16 g ai/ha, postemergence, 0 is no effect, 100 is complete control, read-out: Plant response rating (0 to 100), Wheat): 0%
plant injury at 125 g/ha (wheat, winter; 125 g ai/ha, postemergence, visual rating, scale 0 to 100 (0 no effect, 100 complete control), read-out: Plant response rating, Wheat): 5%
plant injury at 62 g/ha (wheat, winter; Postemergence, 62 g ai/ha, scale 0 to 100 (0 no effect, 100 complete control), read-out: Plant response rating, Wheat): 0%
pest or weed control at 16 g/ha (blackgrass [2]; 16 g ai/ha, preemergence, scale 0 to 100 (0 no effect, 100 complete control), read-out: Blackgrass plant response rating): 0%
pest or weed control at 62 g/ha (blackgrass [2]; 62 g ai/ha, preemergence, scale 0 (no effect) to 100 (complete control), read-out: Blackgrass plant response rating): 40%
pest or weed control at 125 g/ha (blackgrass [2]; 125 g ai/ha, preemergence, scale 0 (no effect) to 100 (complete control), read-out: Blackgrass plant response rating): 95%
pest or weed control at 31 g/ha (blackgrass [2]; Preemergence, 31 g ai/ha, scale 0 to 100, 0 no effect, 100 complete control, read-out: Plant response rating, Blackgrass): 5%
pest or weed control at 16 g/ha (blackgrass [3]; 16 g ai/ha, postemergence, 0 is no effect, 100 is complete control, read-out: Plant response rating (0 to 100), Blackgrass): 5%
pest or weed control at 125 g/ha (blackgrass [3]; 125 g ai/ha, postemergence, visual rating, scale 0 to 100 (0 no effect, 100 complete control), read-out: Plant response rating, Blackgrass): 5%
pest or weed control at 31 g/ha (blackgrass [3]; Postemergence, 31 g ai/ha, scale 0 to 100 (0 no effect, 100 complete control), 13 to 15 days, read-out: Plant response rating, Blackgrass): 5%
pest or weed control at 62 g/ha (blackgrass [3]; Postemergence, 62 g ai/ha, scale 0 to 100 (0 no effect, 100 complete control), read-out: Plant response rating, Blackgrass): 10%
pest or weed control at 16 g/ha (barnyardgrass; 16 g ai/ha, postemergence, 0 is no effect, 100 is complete control, read-out: Plant response rating (0 to 100), Barnyardgrass): 0%
pest or weed control at 125 g/ha (barnyardgrass; 125 g ai/ha, postemergence, visual rating, scale 0 to 100 (0 no effect, 100 complete control), read-out: Plant response rating, Barnyardgrass): 5%
pest or weed control at 31 g/ha (barnyardgrass; Postemergence, 31 g ai/ha, scale 0 to 100 (0 no effect, 100 complete control), 13 to 15 days, read-out: Plant response rating, Barnyardgrass): 0%
pest or weed control at 62 g/ha (barnyardgrass; Postemergence, 62 g ai/ha, scale 0 to 100 (0 no effect, 100 complete control), read-out: Plant response rating, Barnyardgrass): 5%
pest or weed control at 125 g/ha (pigweed [4]; 125 g ai/ha, read-out: Plant response rating, Pigweed): 100%
pest or weed control at 500 g/ha (pigweed [4]; 240 h, 500 g ai/ha, read-out: Pigweed plant response rating): 100%
pest or weed control at 16 g/ha (pigweed [5]; 16 g ai/ha, preemergence, scale 0 to 100 (0 no effect, 100 complete control), read-out: Pigweed plant response rating): 30%
pest or weed control at 62 g/ha (pigweed [5]; 62 g ai/ha, preemergence, scale 0 (no effect) to 100 (complete control), read-out: Pigweed plant response rating): 70%
pest or weed control at 125 g/ha (pigweed [5]; 125 g ai/ha, preemergence, scale 0 (no effect) to 100 (complete control), read-out: Pigweed plant response rating): 100%
pest or weed control at 31 g/ha (pigweed [5]; Preemergence, 31 g ai/ha, scale 0 to 100, 0 no effect, 100 complete control, read-out: Plant response rating, Pigweed): 45%
pest or weed control at 16 g/ha (ragweed; 16 g ai/ha, preemergence, scale 0 to 100 (0 no effect, 100 complete control), read-out: Ragweed plant response rating): 10%
pest or weed control at 62 g/ha (ragweed; 62 g ai/ha, preemergence, scale 0 (no effect) to 100 (complete control), read-out: Ragweed plant response rating): 40%
pest or weed control at 125 g/ha (ragweed; 125 g ai/ha, preemergence, scale 0 (no effect) to 100 (complete control), read-out: Ragweed plant response rating): 30%
pest or weed control at 31 g/ha (ragweed; Preemergence, 31 g ai/ha, scale 0 to 100, 0 no effect, 100 complete control, read-out: Plant response rating, Ragweed): 10%
pest or weed control at 16 g/ha (yellow nutsedge [6]; 16 g ai/ha, postemergence, 0 is no effect, 100 is complete control, read-out: Plant response rating (0 to 100), Nutsedge, Yellow): 0%
pest or weed control at 125 g/ha (yellow nutsedge [6]; 125 g ai/ha, postemergence, visual rating, scale 0 to 100 (0 no effect, 100 complete control), read-out: Plant response rating, Nutsedge, Yellow): 10%
pest or weed control at 62 g/ha (yellow nutsedge [6]; Postemergence, 62 g ai/ha, scale 0 to 100 (0 no effect, 100 complete control), read-out: Plant response rating, Nutsedge, Yellow): 0%
